EC50 and IC50 data for 14 molecules are collected here from patent US20250042896A1, “POLYCYCLIC COMPOUND AS CBL-B INHIBITOR” (HAINAN SIMCERE ZAIMING PHARMACEUTICAL CO., LTD., priority 2021, published 2025).

For orientation: EC50 means the midpoint of the concentration-response curve. Lower therefore signals an effect from little substance. By IC50 is commonly meant the concentration that gives 50% inhibition. Higher therefore signals weaker potency.

The subject of one experiment is Jurkat T cells. The experiment in a line: Jurkat T activation assay (IL-2 release, ELISA). It counts as cell-based. As to conditions: IL-2 release of Jurkat T cells, Anti-Human CD3/CD28 stimulation, 48 hours, IL-2 ELISA. The method, then: Experiment purpose: Testing of effect of compounds on IL-2 release and activation of Jurkat T cells
Experimental method: 96-well cell plates (Corning) were coated with 2 μg/mL Anti-Human CD3 Clone OKT3 (BD) at 37° C. for 4 hours. 3-fold serial dilutions of compounds (final concentration 10 μM-4.6 nM, starting concentration 10 μM, 3-fold dilution, 8 points, 8th point being 4.6 nM) and 220 μL of 1.11×10^6/mL Jurkat T cells (ATCC) were incubated for 1 hour, 5 μL of 45 μg/mL Anti-Human CD28 Clone CD28.2 (BD) was added, mixed evenly, 100 μL was transferred to the aforementioned CD3-coated cell plate, cultured in a cell incubator at 37° C. for 48 hours, and the supernatant was collected and the IL-2 release was detected using an IL-2 ELISA kit (BD). EC50 was analyzed using Prism.
On the technique in general: An ELISA detects its analyte on a solid surface through an enzyme-linked reagent.

For experiment [1], the target named is Cbl-b protein and UbcH5B-Ub (Homo sapiens (Human), UniProt Q13191). Briefly: Cbl-b activity assay (HTRF, interaction between Cbl-b protein and UbcH5B-Ub). It counts as biochemical. As to conditions: inhibition of interaction between Biotin-Cbl-b protein and Eu-Ubquitin-UbcH5B, HTRF signal 665 nm/615 nm. As for the experimental part:
Experiment purpose: Testing of inhibitory activity of compounds on the interaction between Cbl-b protein and UbcH5B-Ub
Experimental method: Eu-Ubquitin-UbcH5B was prepared by incubating Eu-Ubquitin (Cisbio) with UbcH5B (ENZO), E1 (ENZO) at 37° C. for 4 hours. Eu-Ubquitin-UbcH5B was aliquoted and stored at −80° C. Cbl-b activity assay was performed in 384-well plates (Perkin Elmer). 100 nL of 3-fold serial dilutions of compounds (final concentration 10 μM-0.5 nM, starting concentration 10 μM, 3-fold dilution, 10 points, 10th point being 0.5 nM) and 5 μL of 50 nM Biotin-Cbl-b protein (Sigma) were incubated for 1 hour at room temperature, and the reaction buffer was 50 mM HEPES pH 7.0 (Gibco), 100 mM NaCl (Sigma), 0.01% Triton X-100 (Sigma), 0.01% BSA (Sigma) and 1 mM DTT (Invitrogen). 5 μL of Src mixed solution (40 nM Src (R&D), 2 mM ATP (Sigma), 10 mM MgCl2 (Sigma)) was added to the reaction plate and incubated at room temperature for 3 hours. 10 μL of detection solution (12.5 nM Strepdividin-XL665 (Cisbio), 500 nM Eu-Ubquitin-UbcH5B, […] (Invitrogen), 0.004% BSA (Sigma)) was added to the reaction plate, incubated overnight at room temperature, and the HTRF signal (665 nm/615 nm) was read on Envision (Perkin Elmer). IC50 was calculated using IDBS XLfit.
On the technique in general: In TR-FRET formats the signal depends on donor and acceptor labels being close together.

Cbl-b protein and UbcH5B-Ub, sequence (Q13191 whole entry, species assumed): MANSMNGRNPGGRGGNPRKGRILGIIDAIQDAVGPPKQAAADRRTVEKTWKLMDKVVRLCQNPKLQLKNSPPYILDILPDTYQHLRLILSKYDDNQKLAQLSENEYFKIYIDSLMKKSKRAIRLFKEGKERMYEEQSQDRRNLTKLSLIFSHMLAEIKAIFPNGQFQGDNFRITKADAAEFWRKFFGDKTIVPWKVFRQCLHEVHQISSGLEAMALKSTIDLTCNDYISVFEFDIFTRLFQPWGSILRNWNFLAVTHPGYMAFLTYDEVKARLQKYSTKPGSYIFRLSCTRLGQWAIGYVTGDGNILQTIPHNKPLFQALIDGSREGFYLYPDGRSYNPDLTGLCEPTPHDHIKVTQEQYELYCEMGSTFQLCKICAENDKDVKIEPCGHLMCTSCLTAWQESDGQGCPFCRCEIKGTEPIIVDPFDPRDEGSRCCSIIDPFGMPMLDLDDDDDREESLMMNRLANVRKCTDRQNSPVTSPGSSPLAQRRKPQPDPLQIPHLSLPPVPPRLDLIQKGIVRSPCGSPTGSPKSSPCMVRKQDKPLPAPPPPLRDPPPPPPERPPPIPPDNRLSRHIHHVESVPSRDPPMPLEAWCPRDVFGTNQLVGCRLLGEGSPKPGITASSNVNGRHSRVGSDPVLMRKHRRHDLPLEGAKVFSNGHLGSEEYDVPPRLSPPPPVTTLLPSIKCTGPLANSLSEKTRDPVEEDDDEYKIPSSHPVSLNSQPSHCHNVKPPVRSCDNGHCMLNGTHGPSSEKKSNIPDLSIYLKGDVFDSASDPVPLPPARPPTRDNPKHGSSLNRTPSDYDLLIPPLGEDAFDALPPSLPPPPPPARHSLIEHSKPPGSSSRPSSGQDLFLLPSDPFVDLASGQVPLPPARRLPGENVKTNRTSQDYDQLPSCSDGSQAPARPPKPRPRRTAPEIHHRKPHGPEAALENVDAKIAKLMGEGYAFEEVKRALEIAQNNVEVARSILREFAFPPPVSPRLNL

As to `Cc1cc(CN2CCC[C@H](C)C2)cc2c(=O)c(-c3cccc(C(F)(c4nncn4C)C(F)(F)F)c3)coc12` (stereo partly drawn) [Compound 128, 8-methyl-6-(((S)-3-methylpiperidin-1-yl)methyl)-3-(3-(1,2,2,2-tetrafluoro-1-(4-methyl-4H-1,2,4-triazol-3-yl)ethyl)phenyl)-4H-chromen-4-one], the EC50 with Jurkat T cells was 0.279 µM. Further, the IC50 in experiment [1] came out at 0.0286 µM.

Consider `CC1CC(c2cccc(-c3cnc4c(C(F)(F)F)cc(CN5CCC[C@H](C)C5)cn4c3=O)c2)(c2nncn2C)C1` (stereo partly drawn) [Compound 2, 3-[3-[3-methyl-1-(4-methyl-4H-1,2,4-triazol-3-yl)cyclobutyl]phenyl]-7-[[(3S)-3-methyl-1-piperidyl]methyl]-9-(trifluoromethyl)pyrido[1,2-a]pyrimidin-4-one], for which the EC50 with Jurkat T cells is 0.634 µM. The same molecule returned an IC50 in experiment [1] of 0.0403 µM.

`Cc1c(F)c(CN2CCC[C@H](C)C2)cc2c(=O)c(-c3cccc(C4(c5nncn5C)CC(C)C4)c3)coc12` (stereo in doubt) [Compound 121, 7-fluoro-8-methyl-3-(3-(cis-3-methyl-1-(4-methyl-4H-1,2,4-triazol-3-yl)cyclobutyl)phenyl)-6-(((s)-3-methylpiperidin-1-yl)methyl)-4H-chromen-4-one] showed an EC50 with Jurkat T cells of 0.251 µM. Half-maximal inhibition in experiment [1] (IC50) required 0.0101 µM.

In the experiment with Jurkat T cells, `CC1CC(c2cccc(-c3cnc4c(C(F)(F)F)cc(CN5CC6CC(C)(C6)C5)cn4c3=O)c2)(c2nncn2C)C1` (stereo not shown) [Compound 62] gave an EC50 of 0.525 µM. For the same molecule, half-maximal inhibition in experiment [1] (IC50) was put at 0.0236 µM.

`C[C@H]1CCCN(Cc2cc(C(F)(F)F)c3ncc(-c4cccc([C@]5(c6nncn6C)C[C@@H](C)C5)c4)c(=O)n3c2)C1` [Compound 2-P1] came in with an EC50 in the experiment with Jurkat T cells of 0.426 µM. In experiment [1], the IC50 was found to be 0.0271 µM.

`Cc1cc(CN2CCC[C@H](C)C2)cc2c(=O)c(-c3cccc(C(F)(c4nncn4C)C4CC4)c3)coc12` (stereo partly shown) [Compound 120] gave an EC50 in the experiment with Jurkat T cells of 0.688 µM. The IC50 in experiment [1] stood at 0.0175 µM.

For the molecule `Cc1cc(CN2CCC[C@H](C)C2)cc2c(=O)c(-c3cccc(C4(c5nncn5C)CC(F)C4)c3)coc12` (stereo partly drawn) [Compound 69, 3-(3-((1R,3S)-3-fluoro-1-(4-methyl-4H-1,2,4-triazol-3-yl)cyclobutyl)phenyl)-8-methyl-6-(((S)-3-methylpiperidin-1-yl)methyl)-4H-chromen-4-one], the EC50 in the experiment on Jurkat T cells came to 0.552 µM. This molecule registered an IC50 in experiment [1] of 0.015 µM.

Molecule `Cc1c(F)c(CNC2(C)CCC2)cc2c(=O)c(-c3cccc([C@]4(c5nncn5C)C[C@@H](C)C4)c3)coc12` [Compound 122, 7-fluoro-8-methyl-3-(3-(cis-3-methyl-1-(4-methyl-4H-1,2,4-triazol-3-yl)cyclobutyl)phenyl)-6-(((1-methylcyclobutyl)amino)methyl)-4H-chromen-4-one] displayed an EC50 in the experiment with Jurkat T cells of 0.555 µM. The same molecule registered an IC50 in experiment [1] of 0.0123 µM.

Regarding “(1S,3R)-3-(4-methyl-4H-1,2,4-triazol-3-yl)-3-(3-(8-methyl-6-(((S)-3-methylpiperidin-1-yl)methyl)-4-oxo-4H-chromen-3-yl)phenyl)cyclobutylacetonitrile [Compound 68]”, in the experiment with Jurkat T cells, the response was half-maximal at 0.456 µM (EC50). In experiment [1], this molecule showed a half-maximal inhibitory concentration (IC50) of 0.0178 µM.

For the molecule `Cc1c(F)c(CN2CCC[C@H](C)C2)cc2c(=O)c(-c3cccc(C(c4nncn4C)C4CC4)c3)coc12` (stereo partly drawn) [Compound 124, 3-(3-(cyclopropyl(4-methyl-4H-1,2,4-triazol-3-yl)methyl)phenyl)-7-fluoro-8-methyl-6-(((S)-3-methylpiperidin-1-yl)methyl)-4H-chromen-4-one], a half-maximal response in the experiment with Jurkat T cells (EC50) required 0.383 µM. Moreover, the 50% inhibitory concentration (IC50) in experiment [1] came to 0.0197 µM.

`Cc1cc(CN2CCC[C@H](C)C2)cc2c(=O)c(-c3cncc(C4(c5nncn5C)CC(C)C4)c3)coc12` (stereo partly drawn) [Compound 65, (S)-8-methyl-3-(5-(3-methyl-1-(4-methyl-4H-1,2,4-triazol-3-yl)cyclobutyl)pyridin-3-yl)-6-((3-methylpiperidin-1-yl)methyl)-4H-chromen-4-one] came in with a 50% effective concentration (EC50) in the experiment on Jurkat T cells of 0.265 µM. The molecule also yielded an IC50 in experiment [1] of 0.017 µM.

On to `CC(NC1(C)CCC1)c1cc(C(F)(F)F)c2ncc(-c3cccc([C@]4(c5nncn5C)C[C@@H](C)C4)c3)c(=O)n2c1` (stereo partly drawn) [Compound 126, 3-(3-(cis-3-methyl-1-(4-methyl-4H-1,2,4-triazol-3-yl)cyclobutyl)phenyl)-7-(1-((1-methylcyclobutyl)amino)ethyl)-9-(trifluoromethyl)-4H-pyrido[1,2-a]pyrimidin-4-one], for which, in the experiment on Jurkat T cells, the EC50 was found to be 0.0805 µM. The same molecule came in with a concentration for half-maximal inhibition (IC50) in experiment [1] of 0.0111 µM.

In the experiment with Jurkat T cells, `Cc1cc(CN2CCC[C@H](C)C2)cc2c(=O)c(-c3cccc(C4(c5nncn5C)CC(C)C4)c3)coc12` (stereo partly drawn) [Compound 58, (S)-8-methyl-3-(3-(3-methyl-1-(4-methyl-4H-1,2,4-triazol-3-yl)cyclobutyl)phenyl)-6-((3-methylpiperidin-1-yl)methyl)-4H-chromen-4-one] returned an EC50 of 0.112 µM. The molecule further showed an IC50 in experiment [1] of 0.0097 µM.

For the molecule `Cc1cc(C(C)NC2(C)CCC2)cc2c(=O)c(-c3cccc([C@]4(c5nncn5C)C[C@@H](C)C4)c3)coc12` (stereo partly drawn) [Compound 123, 8-methyl-3-(3-(cis-3-methyl-1-(4-methyl-4H-1,2,4-triazol-3-yl)cyclobutyl)phenyl)-6-(1-((1-methylcyclobutyl)amino)ethyl)-4H-chromen-4-one], the midpoint of the response with Jurkat T cells, the EC50, lay at 0.0536 µM. Also, the IC50 in experiment [1] was found to be 0.0054 µM.
